Converted amounts (≈) assume the structure as drawn. Where two headings read alike, the source gives them in different places.
Legend:
[1] = Solubility of milvexian forms in organic solvent systems; type: physicochemical
Procedure: While heating of the feed solution is a viable solution for production, it is a more complex set-up and with risk of crashing out dissolved solids in case of cold spots and plant safety. Various solvent systems (See Table 11 below) were investigated with primary focus on solvent systems containing DCM due to its low boiling point and excellent solubilization properties.
Based on the data it was determined that 70/30 w/w % DCM/MeOH and 80/20 w/w % were promising solvent mixtures and more accurate solubility determination was carried out for 80/20 w/w % DCM/MeOH for both FORM A and P1.Acetone solvate at 20° C. with the results shown in Table 12 below.
P1.Acetone was the preferred crystalline form of milvexian for physical stability and manufacturability reasons. Based on the above, 80/20 w/w % DCM/MeOH solvent system was selected for development due to highly increase solubility over the 90/10 w/w % Acetone/Water solvent system.

[2] = Acetone/Water 90:10 w/w, cited from earlier work

## C[C@@H]1CCC[C@H](n2cnc(-c3cc(Cl)ccc3-n3cc(Cl)nn3)cc2=O)c2cc(ccn2)-c2c(cnn2C(F)F)NC1=O
[1]; 80/20 w/w % DCM/MeOH, 20 °C, organic solvent or mixture, 80/20 w/w % DCM/MeOH, read-out: solubility
  solubility: 230 mg/mL (≈ 367 mM)

## C[C@@H]1CCC[C@H](n2cnc(-c3cc(Cl)ccc3-n3cc(Cl)nn3)cc2=O)c2cc(ccn2)-c2c(cnn2C(F)F)NC1=O [FORM A]
[1]; 70/30 DCM/MeOH, 20 °C, organic solvent or mixture, thermodynamic from solid, 70/30 DCM/MeOH, 20° C., 24 hours, read-out: Solubility in mg/mL solution 24 hours
  solubility at 24 hours: 221 mg/mL (≈ 353 mM)
[1]; 70/30 DCM/MeOH, 20° C.
  Solubility in mg/mL solution 2 weeks: 204 mg/mL (≈ 326 mM)
[1]; 80/20 DCM/MeOH, 20° C.
  Solubility in mg/mL solution 2 weeks: 255 mg/mL (≈ 407 mM)
[1]; 80/20 DCM/MeOH, 20° C., 24 hours
  Solubility in mg/mL solution 24 hours: 272 mg/mL (≈ 434 mM)
[1]; 80/20 w/w % DCM/MeOH, listed as crystalline Form A of milvexian free form
  solubility: 255 mg/mL (≈ 407 mM)
[1]; DCM/MeOH solvent systems of Table 12, 20 °C, organic solvent or mixture, DCM/MeOH solvent systems of Table 12, read-out: solubilities achievable
  solubility: > 220 mg/mL

## C[C@@H]1CCC[C@H](n2cnc(-c3cc(Cl)ccc3-n3cc(Cl)nn3)cc2=O)c2cc(ccn2)-c2c(cnn2C(F)F)NC1=O [Milvexian, (5R,9S)-9-(4-(5-chloro-2-(4-chloro-1H-1,2,3-triazol-1-yl)phenyl)-6-oxopyrimidin-1(6H)-yl)-21-(difluoromethvl)-5-methyl-21H-3-aza-1(4,2)-pyridina-2(5,4)-pyrazolacyclononaphan-4-one]
[1]; 30/70 DCM/MeOH, 20 °C, organic solvent or mixture, 30/70 DCM/MeOH, temperature 20, read-out: Solubility in mg/mL solution
  solubility: 16 mg/mL (≈ 25.5 mM)
[1]; 30/70 DCM/MeOH, 40 °C, organic solvent or mixture, 30/70 DCM/MeOH, temperature 40, read-out: Solubility in mg/mL solution
  solubility: 26 mg/mL (≈ 41.5 mM)
[1]; 30/70 DCM/MeOH, temperature 20
  Solubility description: Sparingly soluble
[1]; 30/70 DCM/MeOH, temperature 40
  Solubility description: Sparingly soluble
[1]; 40/60 DCM/MeOH, 20 °C, organic solvent or mixture, 40/60 DCM/MeOH, temperature 20, read-out: Solubility in mg/mL solution
  solubility: 29 mg/mL (≈ 46.3 mM)
[1]; 40/60 DCM/MeOH, 40 °C, organic solvent or mixture, 40/60 DCM/MeOH, temperature 40, read-out: Solubility in mg/mL solution
  solubility: 44 mg/mL (≈ 70.2 mM)
[1]; 40/60 DCM/MeOH, temperature 20
  Solubility description: Sparingly soluble
[1]; 40/60 DCM/MeOH, temperature 40
  Solubility description: Soluble
[1]; 50/50 DCM/MeOH, 20 °C, organic solvent or mixture, 50/50 DCM/MeOH, temperature 20, read-out: Solubility in mg/mL solution
  solubility: 58 mg/mL (≈ 92.6 mM)
[1]; 50/50 DCM/MeOH, 40 °C, organic solvent or mixture, 50/50 DCM/MeOH, temperature 40, read-out: Solubility in mg/mL solution
  solubility: 77 mg/mL (≈ 123 mM)
[1]; 50/50 DCM/MeOH, temperature 20
  Solubility description: Soluble
[1]; 50/50 DCM/MeOH, temperature 40
  Solubility description: Soluble
[1]; 60/40 DCM/MeOH, 20 °C, organic solvent or mixture, 60/40 DCM/MeOH, temperature 20, read-out: Solubility in mg/mL solution
  solubility: 120 mg/mL (≈ 192 mM)
[1]; 60/40 DCM/MeOH, 40 °C, organic solvent or mixture, 60/40 DCM/MeOH, temperature 40, read-out: Solubility in mg/mL solution
  solubility: > 200 mg/mL
[1]; 60/40 DCM/MeOH, temperature 20
  Solubility description: Freely Soluble
[1]; 60/40 DCM/MeOH, temperature 40
  Solubility description: Freely Soluble
[1]; 70/30 DCM/MeOH, 20 °C, organic solvent or mixture, 70/30 DCM/MeOH, temperature 20, read-out: Solubility in mg/mL solution
  solubility: > 200 mg/mL
[1]; 70/30 DCM/MeOH, 40 °C, organic solvent or mixture, 70/30 DCM/MeOH, temperature 40, read-out: Solubility in mg/mL solution
  solubility: > 200 mg/mL
[1]; 70/30 DCM/MeOH, temperature 20
  Solubility description: Freely Soluble
[1]; 70/30 DCM/MeOH, temperature 40
  Solubility description: Freely Soluble
[1]; 80/20 DCM/MeOH, 20 °C, organic solvent or mixture, 80/20 DCM/MeOH, temperature 20, read-out: Solubility in mg/mL solution
  solubility: > 200 mg/mL
[1]; 80/20 DCM/MeOH, 40 °C, organic solvent or mixture, 80/20 DCM/MeOH, temperature 40, read-out: Solubility in mg/mL solution
  solubility: > 200 mg/mL
[1]; 80/20 DCM/MeOH, temperature 20
  Solubility description: Freely Soluble
[1]; 80/20 DCM/MeOH, temperature 40
  Solubility description: Freely Soluble
[1]; 90/10 DCM/MeOH, 20 °C, organic solvent or mixture, 90/10 DCM/MeOH, temperature 20, read-out: Solubility in mg/mL solution
  solubility: > 200 mg/mL
[1]; 90/10 DCM/MeOH, 40 °C, organic solvent or mixture, 90/10 DCM/MeOH, temperature 40, read-out: Solubility in mg/mL solution
  solubility: > 200 mg/mL
[1]; 90/10 DCM/MeOH, temperature 20
  Solubility description: Freely Soluble
[1]; 90/10 DCM/MeOH, temperature 40
  Solubility description: Freely Soluble
[1]; 100% DCM, 20 °C, organic solvent or mixture, 100% DCM, temperature 20, read-out: Solubility in mg/mL solution
  solubility: 29 mg/mL (≈ 46.3 mM)
[1]; 100% DCM, 40 °C, organic solvent or mixture, 100% DCM, temperature 40, read-out: Solubility in mg/mL solution
  solubility: 51 mg/mL (≈ 81.4 mM)
[1]; 100% DCM, temperature 20
  Solubility description: Sparingly soluble
[1]; 100% DCM, temperature 40
  Solubility description: Soluble
[1]; 100% MeOH, 20 °C, organic solvent or mixture, 100% MeOH, temperature 20, read-out: Solubility in mg/mL solution
  solubility: 4.2 mg/mL (≈ 6.7 mM)
[1]; 100% MeOH, 40 °C, organic solvent or mixture, 100% MeOH, temperature 40, read-out: Solubility in mg/mL solution
  solubility: 6.6 mg/mL (≈ 10.5 mM)
[1]; 100% MeOH, temperature 20
  Solubility description: Slightly soluble
[1]; 100% MeOH, temperature 40
  Solubility description: Slightly soluble
[1]; acetone/water 90/10 w/w %, 20 °C, organic solvent or mixture, acetone/water (90/10 w/w %), room temperature, read-out: solubility
  solubility: 36 mg/mL (≈ 57.5 mM)
[1]; acetone/water 90/10 w/w %, 49 °C, organic solvent or mixture, acetone/water (90/10 w/w %), 49° C., read-out: solubility
  solubility: 70 mg/mL (≈ 112 mM)
[2]; 20° C.
  solubility: 36 mg/mL (≈ 57.5 mM)
[2]; 50° C.
  solubility: 70 mg/mL (≈ 112 mM)

— US20260224494A1, “MILVEXIAN PHARMACEUTICAL COMPOSITIONS” (BRISTOL-MYERS SQUIBB COMPANY, priority 2023, published 2026)
